Laboratory results published in patent publication US9249129B2, “Morpholino substituted urea derivatives as mTOR inhibitors” (CELLZOME LIMITED, priority 2010, dated 2016).
Like-named read-outs stand apart in the source and are kept apart here.

Columns and labels:
Type in all cases: binding
[1] = target: T1, DNA-dependent protein kinase (DNA-PK) (Homo sapiens, UniProt P78527); assay: kinobeads assay, DNA-PK (dot blot detection)
T1 construct: endogenous in cells; host or cells: Jurkat cells (ATCC TIB-152, clone E6-1), lysate
Procedure: (§1) The compounds of the present invention as described were tested in the mTOR kinobeads assay as described below. Briefly, test compounds (at various concentrations) and the affinity matrix (1:1 mixture of beads with immobilized phenylthiazole ligand 1 and beads with immobilized phenylmorpholin-chromen ligand; WO 2009/098021) were added to cell lysate aliquots and allowed to bind to the proteins in the lysate sample. After the incubation time the beads with captured proteins were separated from the lysate. Bound proteins were then eluted and the presence of mTOR, PI3K delta (PI3 Kd) and DNA-dependent protein kinase (DNA-PK) was detected and quantified using a specific antibody in a dot blot procedure and the Odyssey infrared detection system. Dose response curves for individual kinases were generated and IC50 values calculated. Kinobeads assays for PI3 kinases (WO-A 2008/015013) and for kinase selectivity profiling (WO 2009/098021) have been previously described.
(§2) The affinity matrix (beads with immobilized phenylmorpholin-chromen ligand) was washed two times with 15 ml of 1×DP buffer containing 0.2% NP40 (IGEPAL® CA-630, Sigma, #13021) and then resupended in 5.5 ml of 1×DP buffer containing 0.2% NP40 (10% beads slurry).
(§3) 5×DP buffer: 250 mM Tris-HCl pH 7.4, 25% Glycerol, 7.5 mM MgCl2, 750 mM NaCl, 5 mM Na3VO4, filter the 5×-lysis buffer through 0.22 μm filter and store in aliquots at −80° C. The 5×DP buffer is diluted to 1×DP buffer containing 1 mM DTT and 25 mM NaF.
(§4) Stock solutions of test compounds were prepared in DMSO. In a 96 well plate 30 μl solution of diluted test compounds at 5 mM in DMSO were prepared. Starting with this solution a 1:3 dilution series (9 steps) was prepared. For control experiments (no test compound) a buffer containing 2% DMSO was used. Compound CZC00018052 served as a positive control (PI-103; Calbiochem catalogue number 528100).
(§5) Jurkat cells (ATCC catalogue number TIB-152 Jurkat, clone E6-1) were grown in 1 litre Spinner flasks (Integra Biosciences, #182101) in suspension in RPMI 1640 medium (Invitrogen, #21875-034) supplemented with 10% Fetal Bovine Serum (Invitrogen) at a density between 0.15×10^6 and 1.2×10^6 cells/ml. Cells were harvested by centrifugation, washed once with 1×PBS buffer (Invitrogen, #14190-094) and cell pellets were frozen in liquid nitrogen and subsequently stored at −80° C.
(§6) Jurkat cells were homogenized in a Potter S homogenizer in lysis buffer: 50 mM Tris-HCl, 0.8% NP40, 5% glycerol, 150 mM NaCl, 1.5 mM MgCl2, 25 mM NaF, 1 mM sodium vanadate, 1 mM DTT, pH 7.5. One complete EDTA-free tablet (protease inhibitor cocktail, Roche Diagnostics, 1873580) per 25 ml buffer was added. The material was dounced 10 times using a mechanized POTTER S, transferred to 50 ml falcon tubes, incubated for 30 minutes on ice and spun down for 10 min at 20,000 g at 4° C. (10,000 rpm in Sorvall SLA600, precooled). The supernatant was transferred to an ultracentrifuge (UZ)-polycarbonate tube (Beckmann, 355654) and spun for 1 hour at 100.000 g at 4° C. (33.500 rpm in Ti50.2, precooled). The supernatant was transferred again to a fresh 50 ml falcon tube, the protein concentration was determined by a Bradford assay (BioRad) and samples containing 50 mg of protein per aliquot were prepared. The samples were immediately used for experiments or frozen in liquid nitrogen and stored frozen at −80° C.
(§7) Jurkat cell lysate (approximately 50 mg protein per plate) was thawed in a water bath at room temperature and then kept on ice. To the thawed cell lysate 1×DP 0.8% NP40 buffer containing protease inhibitors (1 tablet for 25 ml buffer; EDTA-free protease inhibitor cocktail; Roche Diagnostics 1873580) was added in order to reach a final protein concentration of 5 mg/ml total protein. The diluted cell lysate was stored on ice. […]

[2] = target: T2, mTOR (Homo sapiens, UniProt P42345); assay: mTOR kinobeads assay (dot blot detection)
T2 construct: endogenous in cells; host or cells: Jurkat cells (ATCC TIB-152, clone E6-1), lysate
Procedure: as §1, §2, §3, §4, §5, §6, §7

[3] = target: T3, PI3K delta (PI3Kd) (Homo sapiens, UniProt O00329); assay: kinobeads assay, PI3K delta (dot blot detection)
T3 construct: endogenous in cells; host or cells: Jurkat cells (ATCC TIB-152, clone E6-1), lysate
T3 sequence (O00329 whole entry): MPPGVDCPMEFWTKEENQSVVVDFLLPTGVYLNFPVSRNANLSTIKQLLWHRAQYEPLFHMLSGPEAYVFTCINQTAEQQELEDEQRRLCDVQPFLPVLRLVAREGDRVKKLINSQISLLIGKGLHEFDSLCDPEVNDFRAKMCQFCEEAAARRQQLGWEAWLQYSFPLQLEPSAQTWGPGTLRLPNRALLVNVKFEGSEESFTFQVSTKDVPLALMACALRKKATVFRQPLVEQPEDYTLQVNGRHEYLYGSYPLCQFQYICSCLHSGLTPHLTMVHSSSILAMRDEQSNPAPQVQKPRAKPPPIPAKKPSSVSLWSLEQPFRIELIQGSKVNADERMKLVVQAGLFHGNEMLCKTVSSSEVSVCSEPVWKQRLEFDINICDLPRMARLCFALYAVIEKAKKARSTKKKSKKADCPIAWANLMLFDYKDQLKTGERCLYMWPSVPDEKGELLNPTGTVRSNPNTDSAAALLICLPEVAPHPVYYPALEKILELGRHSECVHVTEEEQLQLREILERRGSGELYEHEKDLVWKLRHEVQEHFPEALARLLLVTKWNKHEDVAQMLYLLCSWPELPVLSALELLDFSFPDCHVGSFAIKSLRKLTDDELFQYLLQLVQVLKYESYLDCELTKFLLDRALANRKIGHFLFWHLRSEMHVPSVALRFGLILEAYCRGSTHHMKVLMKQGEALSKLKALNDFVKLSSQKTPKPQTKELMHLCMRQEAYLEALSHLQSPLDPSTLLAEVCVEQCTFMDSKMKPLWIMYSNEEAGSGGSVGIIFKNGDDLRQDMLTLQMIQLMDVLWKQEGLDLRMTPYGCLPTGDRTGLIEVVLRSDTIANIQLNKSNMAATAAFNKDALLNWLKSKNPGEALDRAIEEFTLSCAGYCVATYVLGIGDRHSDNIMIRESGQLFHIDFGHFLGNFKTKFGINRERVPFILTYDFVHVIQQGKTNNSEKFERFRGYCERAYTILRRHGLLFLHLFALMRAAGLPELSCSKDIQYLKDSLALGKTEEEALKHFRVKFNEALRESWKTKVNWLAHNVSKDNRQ
T3 sequence (P27986 whole entry partner): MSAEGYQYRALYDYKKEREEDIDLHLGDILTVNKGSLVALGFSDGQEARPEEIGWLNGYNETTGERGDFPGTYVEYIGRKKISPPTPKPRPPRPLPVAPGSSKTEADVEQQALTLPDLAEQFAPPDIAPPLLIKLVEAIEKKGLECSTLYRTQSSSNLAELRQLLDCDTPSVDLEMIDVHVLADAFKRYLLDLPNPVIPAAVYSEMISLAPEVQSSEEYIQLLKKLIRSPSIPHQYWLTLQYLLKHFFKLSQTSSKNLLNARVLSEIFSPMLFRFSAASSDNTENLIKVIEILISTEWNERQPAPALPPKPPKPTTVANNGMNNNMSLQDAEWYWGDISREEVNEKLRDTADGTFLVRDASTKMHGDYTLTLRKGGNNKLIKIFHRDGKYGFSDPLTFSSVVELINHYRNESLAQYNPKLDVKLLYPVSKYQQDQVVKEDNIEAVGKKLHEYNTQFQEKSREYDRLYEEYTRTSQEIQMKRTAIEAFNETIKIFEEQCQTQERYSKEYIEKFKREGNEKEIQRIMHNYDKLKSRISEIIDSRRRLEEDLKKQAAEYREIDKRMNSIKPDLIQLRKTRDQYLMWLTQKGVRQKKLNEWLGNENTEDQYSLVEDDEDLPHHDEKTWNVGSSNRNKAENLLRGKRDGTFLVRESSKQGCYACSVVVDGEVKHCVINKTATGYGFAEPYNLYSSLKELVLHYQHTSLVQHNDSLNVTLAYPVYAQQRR
Procedure: as §1, §2, §3, §4, §5, §6, §7

[4] = Table 2, Jurkat cell lysate, read-out: Inhibition values (IC50) DNAPK
[5] = Table 4, read-out: Inhibition values (IC50) DNAPK
[6] = Table 2, Jurkat cell lysate, read-out: Inhibition values (IC50) mTor
[7] = Table 4, read-out: Inhibition values (IC50) mTOR
[8] = Table 2, Jurkat cell lysate, read-out: Inhibition values (IC50) PI3Kd
[9] = Table 4, read-out: Inhibition values (IC50) PI3Kd

SMILES | IC50 [1, 4] [µM] | IC50 [1, 5] [µM] | IC50 [2, 6] [µM] | IC50 [2, 7] [µM] | IC50 [3, 8] [µM] | IC50 [3, 9] [µM]
CCNC(=O)Nc1ccc(-c2cc(-c3ccccc3S(C)(=O)=O)nc(N3CCOCC3)n2)cc1 [Example 20, 1-ethyl-3-(4-(6-(2-(methylsulfonyl)phenyl)-2-morpholinopyrimidin-4-yl)phenyl)urea] | ≥ 10 | ≥ 10 | 1 to 10 | 1 to 10 | ≥ 10 | ≥ 10
CCNC(=O)Nc1ccc(-c2nccc(N3CCOCC3)n2)cc1 [Example 36, 1-ethyl-3-(4-(4-morpholinopyrimidin-2-yl)phenyl)urea] | 1 to 10 | 1 to 10 | 1 to 10 | 1 to 10 | ≥ 10 | ≥ 10
CCCNC(=O)Nc1ccc(-c2ccnc(N3CCOCC3)n2)cc1 [Example 31, 1-propyl-3-(4-(2-morpholinopyrimidin-4-yl)phenyl)urea] | 1 to 10 | 1 to 10 | 1 to 10 | 1 to 10 | ≥ 10 | ≥ 10
CCNC(=O)Nc1ccc(-c2cc(-c3ccccc3NS(C)(=O)=O)nc(N3CCOC[C@@H]3C)n2)cc1 [Example 9, (S)—N-(2-(6-(4-(3-ethylureido)phenyl)-2-(3-methylmorpholino)pyrimidin-4-yl)phenyl)methanesulfonamide] | ≥ 10 | ≥ 10 | 1 to 10 | 1 to 10 | ≥ 10 | ≥ 10
CCNC(=O)Nc1ccc(-c2cc(-c3cc[nH]n3)nc(N3CCOC[C@@H]3C)n2)cc1 [Example 18, (S)-1-ethyl-3-(4-(2-(3-methylmorpholino)-6-(1H-pyrazol-3-yl)pyrimidin-4-yl)phenyl)urea] | ≥ 10 | ≥ 10 | 1 to 10 | 1 to 10 | ≥ 10 | ≥ 10
CCCNC(=O)Nc1ccc(-c2nccc(N3CCOCC3)n2)cc1 [Example 32, 1-(4-(4-morpholinopyrimidin-2-yl)phenyl)-3-propylurea] | 1 to 10 | 1 to 10 | 1 to 10 | 1 to 10 | ≥ 10 | ≥ 10
NC(=O)Nc1ccc(-c2nccc(N3CCOCC3)n2)cc1 [Example 33, 1-(4-(4-morpholinopyrimidin-2-yl)phenyl)urea] | 1 to 10 | 1 to 10 | 1 to 10 | 1 to 10 | 1 to 10 | 1 to 10
CCNC(=O)Nc1ccc(-c2cc(-c3ccccc3S(=O)(=O)NC)nc(N3CCOCC3)n2)cc1 [Example 19, 2-(6-(4-(3-ethylureido)phenyl)-2-morpholinopyrimidin-4-yl)-N-methylbenzenesulfonamide] | ≥ 10 | ≥ 10 | 1 to 10 | 1 to 10 | ≥ 10 | ≥ 10
CCNC(=O)Nc1ccc(-c2cc(-c3ccccc3NC(C)=O)nc(N3CCOC[C@@H]3C)n2)cc1 [Example 10, (S)—N-(2-(6-(4-(3-ethylureido)phenyl)-2-(3-methylmorpholino)pyrimidin-4-yl)phenyl)acetamide] | ≥ 10 | ≥ 10 | 1 to 10 | 1 to 10 | ≥ 10 | ≥ 10
O=C(Nc1ccc(-c2cc(-c3cccnc3)nc(N3CCOCC3)n2)cc1)NC1CC1 [Example 1, 1-cyclopropyl-3-(4-(2-morpholino-6-(pyridin-3-yl)pyrimidin-4-yl)phenyl)urea] | ≥ 10 | ≥ 10 | 1 to 10 | 1 to 10 | ≥ 10 | ≥ 10
CCNC(=O)Nc1ccc(-c2cc(-c3ccncc3)nc(N3CCOC[C@@H]3C)n2)cc1 [Example 13, (S)-1-ethyl-3-(4-(2-(3-methylmorpholino)-6-(pyridin-4-yl)pyrimidin-4-yl)phenyl)urea] | ≥ 10 | ≥ 10 | 1 to 10 | 1 to 10 | ≥ 10 | ≥ 10
CCNC(=O)Nc1ccc(-c2cc(-c3ccccc3CO)nc(N3CCOC[C@@H]3C)n2)cc1 [Example 16, (S)-1-ethyl-3-(4-(6-(2-(hydroxymethyl)phenyl)-2-(3-methylmorpholino)pyrimidin-4-yl)phenyl)urea] | ≥ 10 | ≥ 10 | 1 to 10 | 1 to 10 | ≥ 10 | ≥ 10
C[C@H]1COCCN1c1cc(-c2cccc(S(C)(=O)=O)c2)nc(-c2ccc(NC(=O)NC3CC3)cc2)n1 [Example 5, (S)-1-cyclopropyl-3-(4-(4-(3-methylmorpholino)-6-(3-(methylsulfonyl)phenyl)pyrimidin-2-yl)phenyl)urea] | ≥ 10 | ≥ 10 | 1 to 10 | 1 to 10 | ≥ 10 | ≥ 10
CCNC(=O)Nc1ccc(-c2cc(-c3ccccc3C(N)=O)nc(N3CCOC[C@@H]3C)n2)cc1 [Example 12, (S)-2-(6-(4-(3-ethylureido)phenyl)-2-(3-methylmorpholino)pyrimidin-4-yl)benzamide] | ≥ 10 | ≥ 10 | 1 to 10 | 1 to 10 | ≥ 10 | ≥ 10
CNC(=O)Nc1ccc(-c2nccc(N3CCOCC3)n2)cc1 [Example 27, 1-methyl-3-(4-(4-morpholinopyrimidin-2-yl)phenyl)urea] | 1 to 10 | 1 to 10 | 1 to 10 | 1 to 10 | 1 to 10 | 1 to 10
CCNC(=O)Nc1ccc(-c2cc(-c3ccccc3C(=O)O)nc(N3CCOC[C@@H]3C)n2)cc1 [Example 11, (S)-2-(6-(4-(3-ethylureido)phenyl)-2-(3-methylmorpholino)pyrimidin-4-yl)benzoic acid] | ≥ 10 | ≥ 10 | 1 to 10 | 1 to 10 | ≥ 10 | ≥ 10
